# Source: patent US8338422B2, “Indolin-2-ones and aza-indolin-2-ones” (Janssen Pharmaceutica NV, priority 2007, dated 2012)
# “And” between values parts separate entries of the source, which are not always exact repeats. Identical values can stand only once.
# Assays:
# Assay type in all cases: biochemical
# PLK4 (h) = PLK4 (h) (Homo sapiens, UniProt O00444); test: PLK-4 human kinase assay (SPA); settings: for IC50: read-out: PLK4 pIC50 (converted)
# Experimental: (§1) The in vitro inhibition of a panel of kinases was assessed using either the scintillation proximity assay (SPA) as described by Cook, N. D. et al., Advances in Experimental Medicine and Biology (1991), 36; p. 525-528; or the Fluorescence Resonance Energy Transfer (FRET) technology as described by Rodems, S. M. et al., Assay Drug Develop. Technol. (2002), 1; p. 9-19.
# (§2) In the SPA technology the activity of the kinase of interest is measured using an appropriate biotinylated substrate that is incubated with the aforementioned kinase protein in the presence of (^33P) radiolabeled ATP. (^33P) Phosporylation of the substrate is subsequently measured through binding of the phosphorylated substrate to streptavidine coated beads that are based on the scintillant poly(vinyl toluene) (PVT-Beads). The scintillation intensity is detected by imaging on Leadseeker.
# (§3) All kinases are pre-diluted to a 10× working concentration prior to addition into the assay. The composition of the dilution buffer for each kinase is detailed below.
# In a final reaction volume of 30 μl PLK4 (h) (19 μg/ml) is incubated with 50 mM Hepes pH 8.0, 10 mM MgCl2, 50 mM NaCl, 1 mM NaF, 1 mM DTT, 10 μM of peptide Biotin-RPRGQRDSSYYWE-OH, 1 μM ATP and 2 nM [γ-^33P-ATP] (6.0 μCi/ml). After incubation of 60 minutes at room temperature, the reaction is stopped by addition of 40 μl, of stop solution containing 8.7 mM EDTA, BSA 0.17%, 0.17% Triton X-100, 1.7 mg/ml SPA beads (GE-healthcare). The plate is centriguged and read for Scintillation imaging on Leadseeker.
# AuroraB (h) = AuroraB (h) (Homo sapiens, UniProt Q96GD4); test: Aurora-B human kinase assay (SPA); settings: for IC50: read-out: AuroraB pIC50 (converted)
# Experimental: as §1, §2, §3
# In a final reaction volume of 30 μl, AuroraB (h) (0.5 μg/ml) is incubated with 60 mM Hepes pH 7.5, 3 mM MgCl2, 3 mM MnCl2, 3 μM Na3VO4, 0.05 mg/ml PEG, 2 mM DTT, 3 μM Biotin-[…]-OH, 0.5 μM ATP and 2.2 nM [γ-^33P-ATP] (6.8 μCi/ml). After incubation of 60 minutes at room temperature, the reaction is stopped by addition of 40 μL of stop solution containing 8.7 mM EDTA, BSA 0.17%, 0.17% Triton X-100, 5 mg/ml SPA beads (GE-healthcare). The plate is centriguged and read for Scintillation imaging on Leadseeker.
# GSK3β (h) = GSK3β (h) (Homo sapiens, UniProt P49841); test: GSK-3β human kinase assay (SPA); settings: for IC50: read-out: GSK3B pIC50 (converted)
# Experimental: as §1, §2, §3
# In a final reaction volume of 30 μl, GSK3β (h) (1 μg/ml) is incubated with 25 mM Tris pH 7.4, 10 mM MgCl2, 1 mM DTT, 1 μM peptide Biotin-KRREILSRRPSYR-OH, 1 μM ATP and 2 nM [γ-^33P-ATP] (6.0 μCi/ml). After incubation of 60 minutes at room temperature, the reaction is stopped by addition of […] of stop solution containing 8.7 mM EDTA, BSA 0.17%, 0.17% Triton X-100, 6.25 mg/ml SPA beads (GE-healthcare). The plate is centriguged and read for Scintillation imaging on Leadseeker.
# CDK1/CyclinB (h) = CDK1/CyclinB (h) (Homo sapiens, UniProt P06493); test: CDK1/CyclinB human kinase assay (FRET); settings: for IC50: read-out: CDK1 pIC50 (converted)
# Experimental: as §1
# In the FRET technology the activity of the kinase of interest is measured using an appropriate substrate that is labeled with two fluorophores (coumarin and fluorescein). Phosphorylation is determined using a developing reagent comprising a protease that recognizes and cleaves nonphosphorylated peptides. Cleavage will disturb the FRET between the fluorescein and coumarin on the peptide. Uncleaved, phosphorylated peptides maintain the FRET signal. A ratiometric readout of the donor emission over the acceptor emission quantitates the reaction process.
# as §3
# In a final reaction volume of 10 μl, CDK1/CyclinB (h) (0.2 μg/ml) is incubated with 50 mM Hepes pH 7.5, 10 mM MgCl2, 1 mM EGTA, 0.01% Brij-35, 2 μM Z'lyte Ser/Thr peptide 12 and 10 μM ATP (Invitrogen's FRET assay). After incubation of 60 minutes at room temperature, the reaction is stopped by addition of 5 μL development reagent containing protease mix. After 60 minutes room temperature the development reaction is stopped by adding 5 μl stop solution. The plate is then read in fluorescence plate reader with excitation: 390 nm and dual emission: 460 and 538 nm. Emission ratio is determined to the formula=Emission signal intensity at 460 nm/Emission signal intensity at 538 nm.
# CDK1/CyclinB (h), sequence (P06493 whole entry): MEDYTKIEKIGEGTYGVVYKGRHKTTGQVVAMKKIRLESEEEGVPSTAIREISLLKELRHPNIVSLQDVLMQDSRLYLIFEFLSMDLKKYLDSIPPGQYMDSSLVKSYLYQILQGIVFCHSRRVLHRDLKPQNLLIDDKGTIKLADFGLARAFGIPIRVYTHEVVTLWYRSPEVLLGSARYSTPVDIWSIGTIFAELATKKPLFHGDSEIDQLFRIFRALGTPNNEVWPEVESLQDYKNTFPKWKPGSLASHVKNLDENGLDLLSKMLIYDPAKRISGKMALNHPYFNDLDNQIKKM
# CDK1/CyclinB (h), sequence (P14635 whole entry partner): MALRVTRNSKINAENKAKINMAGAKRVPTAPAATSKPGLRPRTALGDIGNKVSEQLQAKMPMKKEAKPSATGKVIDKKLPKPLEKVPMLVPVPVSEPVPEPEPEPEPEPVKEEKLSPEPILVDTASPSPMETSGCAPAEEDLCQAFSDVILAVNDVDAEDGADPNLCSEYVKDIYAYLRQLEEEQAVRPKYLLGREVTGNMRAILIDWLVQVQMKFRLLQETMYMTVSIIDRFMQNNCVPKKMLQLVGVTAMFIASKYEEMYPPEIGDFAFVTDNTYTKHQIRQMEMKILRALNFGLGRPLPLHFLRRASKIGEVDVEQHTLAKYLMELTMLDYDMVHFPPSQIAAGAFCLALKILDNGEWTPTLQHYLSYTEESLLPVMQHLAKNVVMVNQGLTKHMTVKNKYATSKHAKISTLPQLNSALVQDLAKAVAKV
# GSK3β (h), sequence (P49841 whole entry): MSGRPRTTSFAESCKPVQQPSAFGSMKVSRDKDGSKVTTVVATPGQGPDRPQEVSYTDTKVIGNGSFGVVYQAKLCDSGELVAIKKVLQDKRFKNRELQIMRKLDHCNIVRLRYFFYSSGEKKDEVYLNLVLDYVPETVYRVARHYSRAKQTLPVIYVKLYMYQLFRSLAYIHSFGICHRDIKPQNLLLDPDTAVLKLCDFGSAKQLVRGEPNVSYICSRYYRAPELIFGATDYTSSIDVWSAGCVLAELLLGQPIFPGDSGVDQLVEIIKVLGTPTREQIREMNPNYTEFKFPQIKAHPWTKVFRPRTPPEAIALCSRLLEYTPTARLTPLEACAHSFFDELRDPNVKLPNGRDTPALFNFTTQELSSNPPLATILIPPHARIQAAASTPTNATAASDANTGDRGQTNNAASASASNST
# PLK4 (h), sequence (O00444 whole entry): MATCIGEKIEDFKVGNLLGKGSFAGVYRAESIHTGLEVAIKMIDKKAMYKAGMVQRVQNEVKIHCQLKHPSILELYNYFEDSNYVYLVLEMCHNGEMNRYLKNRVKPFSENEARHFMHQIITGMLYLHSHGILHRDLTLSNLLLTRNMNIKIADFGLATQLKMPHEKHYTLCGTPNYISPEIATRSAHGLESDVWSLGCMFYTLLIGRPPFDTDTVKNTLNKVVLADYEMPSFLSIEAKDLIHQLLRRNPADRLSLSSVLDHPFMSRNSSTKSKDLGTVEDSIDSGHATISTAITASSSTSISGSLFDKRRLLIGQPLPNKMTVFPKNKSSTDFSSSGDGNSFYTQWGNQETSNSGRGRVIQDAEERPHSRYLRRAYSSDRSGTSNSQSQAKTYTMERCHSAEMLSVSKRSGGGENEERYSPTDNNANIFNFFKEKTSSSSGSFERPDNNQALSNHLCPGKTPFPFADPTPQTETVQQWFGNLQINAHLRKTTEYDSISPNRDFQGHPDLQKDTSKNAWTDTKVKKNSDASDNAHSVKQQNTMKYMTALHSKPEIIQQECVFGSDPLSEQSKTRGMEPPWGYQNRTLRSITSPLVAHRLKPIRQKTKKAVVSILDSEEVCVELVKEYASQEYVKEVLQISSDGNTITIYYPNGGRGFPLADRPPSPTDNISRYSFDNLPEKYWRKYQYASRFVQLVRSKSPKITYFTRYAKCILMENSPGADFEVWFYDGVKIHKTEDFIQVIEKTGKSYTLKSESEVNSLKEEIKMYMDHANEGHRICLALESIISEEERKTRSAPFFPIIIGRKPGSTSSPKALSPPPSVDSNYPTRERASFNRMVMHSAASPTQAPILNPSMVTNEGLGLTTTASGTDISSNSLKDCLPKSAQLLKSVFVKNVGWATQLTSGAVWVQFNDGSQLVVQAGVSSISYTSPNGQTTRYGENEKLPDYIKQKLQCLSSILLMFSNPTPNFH
# AuroraB (h), sequence (Q96GD4 whole entry): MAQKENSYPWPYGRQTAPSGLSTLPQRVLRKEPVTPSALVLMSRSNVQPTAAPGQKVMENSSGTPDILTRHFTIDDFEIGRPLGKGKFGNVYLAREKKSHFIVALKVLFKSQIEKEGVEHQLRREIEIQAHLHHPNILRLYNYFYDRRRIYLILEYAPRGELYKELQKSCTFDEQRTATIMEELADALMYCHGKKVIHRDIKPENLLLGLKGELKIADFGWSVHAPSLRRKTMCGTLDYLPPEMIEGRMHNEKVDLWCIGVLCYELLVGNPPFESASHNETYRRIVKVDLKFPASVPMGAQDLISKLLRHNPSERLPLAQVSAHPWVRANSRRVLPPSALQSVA
Structure (SMILES),IC50 (PLK4 (h)) [µM],IC50 (AuroraB (h)) [µM],IC50 (GSK3β (h)) [µM],IC50 (CDK1/CyclinB (h)),PLK4 pIC50 (PLK4 (h)),AuroraB pIC50 (AuroraB (h)),GSK3B pIC50 (GSK3β (h)),CDK1 pIC50 (CDK1/CyclinB (h))
CN1CCCCC(=O)N(C)CCCNc2ncnc3c2/C(=C/Nc2ccc(N4CCOCC4)c(c2)C1)C(=O)N3 [Compound 96],0.741,> 10,0.708,3.39 µM,,,,
CN1CC(=O)N2CCN(CC2)c2cccc3c2/C(=C/Nc2cccc(c2)S1(=O)=O)C(=O)N3 [Compound 2],4.57,> 10,1.17,5.62 µM,,,,
CN1CCC(=O)NCC#Cc2cccc3c2/C(=C/Nc2cccc(c2)S(=O)(=O)N(C)CC1=O)C(=O)N3 [Compound 21],1.86,> 10,4.68,> 10 µM,,,,
COc1cc2cc(c1OC)CN(C)CCCC(=O)N(C)CCCNc1ncnc3c1/C(=C/N2)C(=O)N3 [Compound 6],6.17,> 10,> 10,~10 µM,,,,
COc1ccc2cc1OCCCCC(=O)N(C)CCCNc1ncnc3c1C(=CN2)C(=O)N3 (mixture of isomers) [Compound 62],,,,,6.9,7.75,7.57,6.46
CN1CCCN(C)c2ncnc3c2C(=CNc2cccc(c2)OCCCC1=O)C(=O)N3 (mixture of isomers) [Compound 88],,,,,5.85,5.33,6.26,<5
COc1ccc2cc1CN(C)CCCCCCC(=O)N(C)CCCNc1ncnc3c1C(=CN2)C(=O)N3 (mixture of isomers) [Compound 68],,,,,5.74,<5,5.04,<5
CN1CCCCC(=O)N(C)CCCN(C)c2ncnc3c2/C(=C/Nc2ccc(Cl)c(c2)C1)C(=O)N3 [Compound 91],> 10,> 10,0.977,> 10 µM,,,,
COc1ccc2cc1CN(C)CCCCCC(=O)N(C)CCCN(C)c1ncnc3c1C(=CN2)C(=O)N3 (mixture of isomers) [Compound 89],,,,,<5,<5,<5,<5
COc1ccc2cc1CN(C)CCCCC(=O)N(C)CCCN(C)c1ncnc3c1C(=CN2)C(=O)N3 (mixture of isomers) [Compound 87],,,,,<5,<5,6.17,<5
CN1CCCC(=O)N(C)CCCNc2ncnc3c2/C(=C/Nc2ccc(N4CCOCC4)c(c2)C1)C(=O)N3 [Compound 7],0.759,> 10,0.0741,1.7 µM,,,,
CN1CCCNc2ncnc3c2C(=CNc2ccc(Cl)c(c2)OCCCC1=O)C(=O)N3 (mixture of isomers) [Compound 63],,,,,6.52,7.01,7.68,6.1
CN1CCCN(C)c2ncnc3c2C(=CNc2ccc(Cl)c(c2)OCCCC1=O)C(=O)N3 (mixture of isomers) [Compound 86],,,,,5.9,5.47,6.42,<5

# Continued, in another order:
IC50 (PLK4 (h)) [µM],IC50 (AuroraB (h)) [µM],IC50 (GSK3β (h)) [µM],IC50 (CDK1/CyclinB (h)),Structure (SMILES),PLK4 pIC50 (PLK4 (h)),AuroraB pIC50 (AuroraB (h)),GSK3B pIC50 (GSK3β (h)),CDK1 pIC50 (CDK1/CyclinB (h))
5.62,> 10,0.178,0.603 µM,COc1ccc2cc1CN(C)CCCCC(=O)N(C)CCCNc1ncnc3c1/C(=C/N2)C(=O)N3 [Compound 67],,,,
> 10,> 10,> 10,> 10 µM,CN1CCNc2ncnc3c2/C(=C/Nc2cc(cc(C(F)(F)F)c2)OCCCCC1=O)C(=O)N3 [Compound 128],,,,
5.62,> 10,> 10,> 10 µM,CN1CCCCCCC(=O)N(C)CCCNc2ncnc3c2/C(=C/Nc2cccc(c2)C1)C(=O)N3 [Compound 74],,,,
1.74,0.891,0.263,0.229 µM,CN1CCNc2ncnc3c2/C(=C/Nc2ccc(Cl)c(c2)OCCCC1=O)C(=O)N3 [Compound 60],,,,
1.07,> 10,2.75,> 10 µM,CN1CCCCCC(=O)N(C)CCCNc2ncnc3c2/C(=C/Nc2cccc(c2)C1)C(=O)N3 [Compound 81],,,,
4.37,5.13,1.05,> 10 µM,CN1CCNc2ncnc3c2/C(=C/Nc2cccc(c2)OCCCCCCC1=O)C(=O)N3 [Compound 59],,,,
1.41,> 10,4.68,> 10 µM,CN1CCCCCC(=O)N(C)CCNc2ncnc3c2/C(=C/Nc2cccc(c2)C1)C(=O)N3 [Compound 80],,,,
5.89,> 10,0.562,5.37 µM,COc1ccc2cc1CN(C)CCCCC(=O)N(C)CCNc1ncnc3c1/C(=C/N2)C(=O)N3 [Compound 75],,,,
8.91,> 10,1.38,> 10 µM,CN1CCCNc2ncnc3c2/C(=C/Nc2ccc(Cl)c(c2)OCCCCCCC1=O)C(=O)N3 [Compound 65],,,,
1.29,> 10,1.48,> 10 µM,CN1CCN(c2ccc3cc2CN(C)CCCCC(=O)N(C)CCNc2ncnc4c2/C(=C/N3)C(=O)N4)CC1 [Compound 92],,,,
1.45,1.91,0.575,> 10 µM,COc1ccc2cc1OCCCCCCC(=O)N(C)CCCNc1ncnc3c1/C(=C/N2)C(=O)N3 [Compound 72],,,,
4.79,1.07,0.263,> 10 µM,CN1CCNc2ncnc3c2/C(=C/Nc2ccc(Cl)c(c2)OCCCCCC1=O)C(=O)N3 [Compound 57],,,,
> 10,7.59,2.19,> 10 µM,CN1CCNc2ncnc3c2/C(=C/Nc2ccc(Cl)c(c2)OCCCCCCC1=O)C(=O)N3 [Compound 78],,,,
> 10,> 10,2.63,> 10 µM,N#Cc1ccc2cc1OCCCCC(=O)N1CCN(CC1)c1ncnc3c1/C(=C/N2)C(=O)N3 [Compound 26],,,,
2.14,0.794,0.0427,> 10 µM,CN1CCCNc2ncnc3c2/C(=C/Nc2ccc(Cl)c(c2)OCCCCCC1=O)C(=O)N3 [Compound 64],,,,
3.47,0.759,0.166,~6.76 µM and 6.76 µM,CN1CCNc2ncnc3c2/C(=C/Nc2ccc(Cl)c(c2)OCCCCC1=O)C(=O)N3 [Compound 56],,,,
0.452,> 10,6.38,> 10 µM,CN1CCCCCC(=O)N(C)CCNc2ncnc3c2/C(=C/Nc2ccc(N4CCOCC4)c(c2)C1)C(=O)N3 [Compound 131],,,,
> 10,> 10,> 10,> 10 µM,CN1CCNc2ncnc3c2/C(=C/Nc2cc(cc(C(F)(F)F)c2)OCCCC1=O)C(=O)N3 [Compound 127],,,,
5.13,> 10,1.05,> 10 µM,CN1CCCC(=O)N(C)CCNc2ncnc3c2/C(=C/Nc2ccc(N4CCOCC4)c(c2)C1)C(=O)N3 [Compound 94],,,,
